Results on one substance are retold here after US7851436B2, “Inhibition of migration and induction of cell death by the type II collagen amino propeptides” (Washington University, priority 2007, dated 2010).

The target of data set [1] is T1, αVβ3 integrin (Homo sapiens, UniProt P05106+P06756).
T1 construct: Ch-1 membrane proteins were labeled with biotin, and PIIBNP was used to isolate the integrin molecules; endogenous in cells; host or cells: Ch-1 human chondrosarcoma cells (surface-biotinylated, lysed)
T1 sequence (P06756 31-889 limits assumed): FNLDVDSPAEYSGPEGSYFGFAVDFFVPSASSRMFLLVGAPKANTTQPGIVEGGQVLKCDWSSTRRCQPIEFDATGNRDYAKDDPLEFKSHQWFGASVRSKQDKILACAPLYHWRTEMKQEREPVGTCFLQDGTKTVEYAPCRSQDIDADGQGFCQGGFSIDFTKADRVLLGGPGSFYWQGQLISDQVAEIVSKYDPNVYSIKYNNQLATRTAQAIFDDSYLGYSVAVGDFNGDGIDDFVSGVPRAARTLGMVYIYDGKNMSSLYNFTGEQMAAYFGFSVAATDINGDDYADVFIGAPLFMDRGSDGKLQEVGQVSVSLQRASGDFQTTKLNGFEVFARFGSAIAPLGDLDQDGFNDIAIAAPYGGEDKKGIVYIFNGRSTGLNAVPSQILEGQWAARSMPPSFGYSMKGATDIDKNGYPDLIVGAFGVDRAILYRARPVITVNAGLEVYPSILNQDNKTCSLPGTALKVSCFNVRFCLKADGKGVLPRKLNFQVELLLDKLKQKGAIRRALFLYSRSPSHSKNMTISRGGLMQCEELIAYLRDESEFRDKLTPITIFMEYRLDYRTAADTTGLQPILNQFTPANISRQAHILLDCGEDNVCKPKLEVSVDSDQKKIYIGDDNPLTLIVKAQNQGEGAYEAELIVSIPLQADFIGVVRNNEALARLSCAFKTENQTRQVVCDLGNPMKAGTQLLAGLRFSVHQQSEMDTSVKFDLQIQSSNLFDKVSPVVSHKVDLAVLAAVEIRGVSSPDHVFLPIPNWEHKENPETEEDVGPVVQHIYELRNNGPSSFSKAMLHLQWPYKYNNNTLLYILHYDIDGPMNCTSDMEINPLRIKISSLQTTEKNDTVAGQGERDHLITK
T1 sequence (P06756 891-1048 limits assumed): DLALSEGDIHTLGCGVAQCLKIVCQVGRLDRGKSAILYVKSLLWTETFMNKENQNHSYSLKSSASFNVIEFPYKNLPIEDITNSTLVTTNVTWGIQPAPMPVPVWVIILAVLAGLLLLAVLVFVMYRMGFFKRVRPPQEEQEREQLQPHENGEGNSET
T1 sequence (P05106 27-788): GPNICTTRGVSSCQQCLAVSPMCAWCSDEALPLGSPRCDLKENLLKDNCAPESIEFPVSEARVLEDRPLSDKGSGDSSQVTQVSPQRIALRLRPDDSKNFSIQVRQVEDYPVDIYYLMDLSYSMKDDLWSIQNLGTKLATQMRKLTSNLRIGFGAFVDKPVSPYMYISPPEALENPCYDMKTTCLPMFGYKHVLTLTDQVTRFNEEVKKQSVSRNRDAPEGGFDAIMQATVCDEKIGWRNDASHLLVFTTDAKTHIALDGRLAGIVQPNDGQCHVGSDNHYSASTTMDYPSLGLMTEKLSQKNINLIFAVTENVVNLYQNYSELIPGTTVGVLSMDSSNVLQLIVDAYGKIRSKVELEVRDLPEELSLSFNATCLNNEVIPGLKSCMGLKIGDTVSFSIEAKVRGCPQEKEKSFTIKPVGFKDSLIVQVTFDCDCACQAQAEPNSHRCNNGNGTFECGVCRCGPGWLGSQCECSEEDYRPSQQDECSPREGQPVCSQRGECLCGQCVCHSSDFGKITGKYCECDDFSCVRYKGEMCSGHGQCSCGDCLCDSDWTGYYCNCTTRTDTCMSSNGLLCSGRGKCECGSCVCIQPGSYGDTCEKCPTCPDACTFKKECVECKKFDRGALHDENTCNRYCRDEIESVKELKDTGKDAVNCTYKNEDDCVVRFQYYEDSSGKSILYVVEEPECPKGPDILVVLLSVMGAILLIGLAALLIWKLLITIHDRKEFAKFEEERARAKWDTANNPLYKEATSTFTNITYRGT
Briefly: Cell surface labeling and GST pull-down with immunoblotting. It counts as binding. The note with it: biotin-labeled Ch-1 membrane proteins, Western blot. The procedure: (§1) Immunoblotting. Western blotting was performed as described (7). Blots were probed with the following primary antibodies: rabbit anti αV, α2, α3, α5, β1, β3, β5 integrin and goat anti actin (Saint Cruz), chicken anti PIIBNP antiserum, and mouse anti exon 2 antiserum.
(§2) Cell Surface labeling and GST Pull-down Assay. Ch-1 cells were incubated with EZ-link Sulfo-NHS-Biotin reagent for 30 mins. according to the product instruction (Sigma). After 3 washes with 0.1 M glycine in PBS, the cells were lysed with a lysis buffer described above. The lysate was incubated with glutathione derivatized agarose beads previously bound with GST, PIIANP, PIIBNP or mPIIBNP for 1 hr. at RT. […] The membrane was washed and incubated with antibodies and then incubated with a secondary antibody coupled to horseradish peroxidase. The antibody complex was visualized by enhanced chemiluminescence.

The target of data set [2] is T2, αVβ5 integrin (Homo sapiens, UniProt P06756+P18084).
T2 construct: Ch-1 membrane proteins were labeled with biotin, and PIIBNP was used to isolate the integrin molecules; endogenous in cells; host or cells: Ch-1 human chondrosarcoma cells (surface-biotinylated, lysed)
T2 sequence (P06756 31-889 limits assumed): as the sequence (P06756 31-889 limits assumed) above
T2 sequence (P06756 891-1048 limits assumed): as the sequence (P06756 891-1048 limits assumed) above
T2 sequence (P18084 24-799): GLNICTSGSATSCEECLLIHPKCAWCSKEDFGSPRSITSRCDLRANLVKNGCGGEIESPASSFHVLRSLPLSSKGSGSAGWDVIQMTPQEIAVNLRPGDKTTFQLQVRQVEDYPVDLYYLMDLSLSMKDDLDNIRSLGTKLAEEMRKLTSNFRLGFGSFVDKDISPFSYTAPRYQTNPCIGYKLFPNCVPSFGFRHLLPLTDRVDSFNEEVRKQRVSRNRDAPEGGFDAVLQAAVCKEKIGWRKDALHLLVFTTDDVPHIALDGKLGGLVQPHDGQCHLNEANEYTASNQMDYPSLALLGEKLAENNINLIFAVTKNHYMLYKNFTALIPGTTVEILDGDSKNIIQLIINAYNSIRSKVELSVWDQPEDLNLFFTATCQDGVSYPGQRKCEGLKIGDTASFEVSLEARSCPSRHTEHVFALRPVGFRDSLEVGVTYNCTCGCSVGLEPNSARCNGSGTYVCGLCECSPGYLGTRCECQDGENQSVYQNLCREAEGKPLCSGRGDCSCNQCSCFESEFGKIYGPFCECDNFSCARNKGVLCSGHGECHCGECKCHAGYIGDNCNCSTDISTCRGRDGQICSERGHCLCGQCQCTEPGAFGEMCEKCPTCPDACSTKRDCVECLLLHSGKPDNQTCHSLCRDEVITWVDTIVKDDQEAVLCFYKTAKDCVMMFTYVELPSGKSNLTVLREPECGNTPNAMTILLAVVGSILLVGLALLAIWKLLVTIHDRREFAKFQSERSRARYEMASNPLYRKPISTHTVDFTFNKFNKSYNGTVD
Described as above. It counts as binding. The note with it: biotin-labeled Ch-1 membrane proteins, Western blot. The procedure: as §1, §2

Data set [3] has as its system Ch-1 cells. Nature of the data set: Internalization of propeptides (immunostaining). It counts as cell-based, human. The source says: Ch-1 cells exposed to GST-PIIBNP and GST-PIIANP were immunostained with immunospecific antibodies. […] The internalization of PIIBNP may be exploited to target exogenous agents to cells expressing αVβ3 and αVβ5 integrins.
The test system of data set [4] is FGF induced mouse cornea neovascularization. Briefly: In vivo mouse cornea angiogenesis inhibition assay. The note with it: Balb/c mice, osmotic pumps, one week. The method, then: FGF containing PolyHEMA pellets were implanted into the corneas of 6 week old Balb/c mice. The mice received osmotic pumps containing a number of proteins to measure the ability of each protein to inhibit angiogenesis. After one week the mice were sacrificed and angiogenesis was quantified based on the total vessel length seen from fluorescently labeled vessels.
To prepare a FGF Pellet (67 ng/quarter pellet) PBS (1 μl of 1×PBS pH 7.4), sucralfate (Sigma, #S0652)(1 μL of a 100 mg/mL suspension of sucralfate), Human FGF-2 (Peprotech, 100-1 8B)(1 μL of 3.2 mg/mL FGF-2), and poly-hema (poly(2-hydroxyethyl methacrylate), Sigma, P3932)(3 μL of 250 mg/mL poly-hema) were combined. Pellets (0.5 μL) were prepped on parafilm, air dried for 10-20 mins, and divided into quarters. The resulting pellets were sealed with parafilm and stored at −20° C. until needed.
To implant the pellet, a mouse was injected with Ketamine/Xylazine (about 0.1 mg KX/gram mouse, IP injection). […]
After one week the mice are injected with same amount of Ketamine given during the implantation procedure. […] Any remaining tissues will show up when the cornea is mounted and viewed with fluorescence. […] Angiogenesis is measured by total vessel outgrowth based on the fluorescently stained blood vessels using Metamorph software (FIG. 9).

The subject of data set [5] is mouse chondrogenic cells (ATDC5). Nature of the data set: Chondrogenic cell viability (trypan blue exclusion). In kind it is cell-based. The note with it: 16 hours at 37° C. The procedure: FIG. 10 depicts a graph showing mouse chondrogenic cells (ATDC5), mouse osteoblast cells, and mouse osteoclast cells treated with recombinant GST, PIIBNP or mPIIBNP proteins for 16 hours at 37° C. The cells were trypsinized and cell viability was assayed using a trypan blue exclusion based cell counting. PPIIBNP induced death in osteoclasts that resorb the bone, but not the osteoblasts that form bone.

The subject of data set [6] is osteoclasts differentiated from Raw 264.7 cells, integrin αv siRNA treated. Nature of the data set: Osteoclast death after integrin αv siRNA. In kind it is cell-based, mouse. The note with it: 16 hours. The procedure:
FIG. 11 depicts a graph showing PIIBNP-induced osteoclast death. siRNA specifically targeted to integrin αv was purchased from San Cruz (San Cruz, Calif.). Raw 264.7 cells were differentiated into osteoclasts by treatment with 100 nM of s-RANKL. The integrin αv expression in the […] were suppressed by treatment of the cells with siRNA. Integrin αv suppressed osteoblasts were incubated with recombinant GST, PIIBNP or mPIIBNP for 16 hours. Cell viability was assayed by a trypan blue exclusion test as described in FIG. 3.

“Also recorded” adds a separate entry of the source.

For the substance “PIIBNP: Recombinant human Type IIB procollagen NH2-propeptide (exons 3-8, lacking exon 2), expressed as GST fusion protein”, the “binding to integrin αVβ3” value in data set [1] is “only integrins identified; also recorded: binds”. Further, the “binding to integrin αVβ5” value in data set [2] was “only integrins identified; also recorded: binds”. For the same substance, the internalization into cells entry in data set [3] is “is internalized”. In addition, the “colocalization with actin filaments” value in data set [3] (30 minutes of exposure) was “colocalized with actin filaments”. For the same substance, the “localization to the nucleus” value in data set [3] (2 hours of exposure) is “localized to the nucleus; also recorded: colocalized with the nucleus”. In addition, the “inhibition of angiogenesis (cornea neovascularization)” value in data set [4] (FGF pellets) is “inhibits angiogenesis in vivo; also recorded: suppression of neovascularization”. For the same substance, in data set [4], the toxicity result was “no apparent toxicity”. Besides, the “induction of ATDC5 cell death” value in data set [5] is on record as “did not lead to the mouse chondrogenic cell (ATDC5) death”. The “PIIBNP-induced osteoclast death after integrin αv siRNA compared with control siRNA” value in data set [6] was “significantly reduced”.
